Assay results: PubChem BioAssay AID2060494 (Molecular Pharmacology Branch, DTP, NCI, 2025)

Tested on: 435261-313-R-J1-PDC complex spheroid viability
Test: Anticancer human tumor 435261-313-R-J1-PDC patient-derived colon adenocarcinoma cell line growth inhibition [GQUAD]
Details: for IC50: curve of first compound; for viability, T/C: stronger effect = lower value; active means viability on the fitted dose curve at most 10% of control; inactive means the rest
Procedure, shortened: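 Tumor cells were grown as complex spheroids with HUVEC endothelial cells and mesenchymal stem cells as stroma. G-quadruplex stabilizers were combined with targeted agents over half-log dilutions from near the clinical Cmax, or from 10 microM.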

[1] = second compound 0.0316 µM, first compound 0.0316 µM
[2] = second compound 0.0316 µM, first compound 0.1 µM
[3] = second compound 0.0316 µM, first compound 0.316 µM
[4] = second compound 0.0316 µM, first compound 1 µM
[5] = second compound 0.0316 µM, first compound 3.16 µM
[6] = second compound 0.0316 µM, first compound 10 µM
[7] = second compound 0.1 µM, first compound 0.0316 µM
[8] = second compound 0.1 µM, first compound 0.1 µM
[9] = second compound 0.1 µM, first compound 0.316 µM
[10] = second compound 0.1 µM, first compound 1 µM
[11] = second compound 0.1 µM, first compound 3.16 µM
[12] = second compound 0.1 µM, first compound 10 µM
[13] = second compound 0.316 µM, first compound 0.0316 µM
[14] = second compound 0.316 µM, first compound 0.1 µM
[15] = second compound 0.316 µM, first compound 0.316 µM
[16] = second compound 0.316 µM, first compound 1 µM
[17] = second compound 0.316 µM, first compound 3.16 µM
[18] = second compound 0.316 µM, first compound 10 µM
[19] = second compound 1 µM, first compound 0.0316 µM
[20] = second compound 1 µM, first compound 0.1 µM
[21] = second compound 1 µM, first compound 0.316 µM
[22] = second compound 1 µM, first compound 1 µM
[23] = second compound 1 µM, first compound 3.16 µM
[24] = second compound 1 µM, first compound 10 µM
[25] = second compound 3.16 µM, first compound 0.0316 µM
[26] = second compound 3.16 µM, first compound 0.1 µM
[27] = second compound 3.16 µM, first compound 0.316 µM
[28] = second compound 3.16 µM, first compound 1 µM
[29] = second compound 3.16 µM, first compound 3.16 µM
[30] = second compound 3.16 µM, first compound 10 µM
[31] = second compound 10 µM, first compound 0.0316 µM
[32] = second compound 10 µM, first compound 0.1 µM
[33] = second compound 10 µM, first compound 0.316 µM
[34] = second compound 10 µM, first compound 1 µM
[35] = second compound 10 µM, first compound 3.16 µM
[36] = second compound 10 µM, first compound 10 µM
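Further: spheroids exposed to the agents for seven days before readout.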
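Wherever viability, T/C is given: percent of vehicle control viability with DMSO wells as 100%.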

CC(C)(O)C1CCC(Nc2ccc3ncc(-c4cccc(C(F)(F)F)c4)n3n2)CC1 (stereo not drawn) + Cc1[nH]c2ccc(F)cc2c1-c1nc2c3cccnc3c3ncccc3c2[nH]1
229 nM: IC50 (second compound 1 µM)
active: viability, T/C [5] 6.6% | viability, T/C [6] 11.2% | viability, T/C [11] 8.63% | viability, T/C [12] 8.09% | viability, T/C [18] 11.5% | viability, T/C [23] 6.32% | viability, T/C [24] 5.71% | viability, T/C [30] 3.07% | viability, T/C [35] 1.4% | viability, T/C [36] 3.39%
< 31.6 nM: IC50 (second compound 3.16 µM) | IC50 (second compound 10 µM)
inactive: viability, T/C [1] 85.1% | viability, T/C [2] 93.4% | viability, T/C [3] 79% | viability, T/C [4] 27.4% | viability, T/C [7] 80% | viability, T/C [8] 79.6% | viability, T/C [9] 98.3% | viability, T/C [10] 32.2% | viability, T/C [13] 92.8% | viability, T/C [14] 90.7% | viability, T/C [15] 64.5% | viability, T/C [16] 31.5% | viability, T/C [17] 3.9% | viability, T/C [19] 63.4% | viability, T/C [20] 61% | viability, T/C [21] 44.1% | viability, T/C [22] 27.3% | viability, T/C [25] 23.6% | viability, T/C [26] 19.2% | viability, T/C [27] 30.8% | viability, T/C [28] 22.3% | viability, T/C [29] 3.91% | viability, T/C [31] 18.3% | viability, T/C [32] 20.8% | viability, T/C [33] 18.5% | viability, T/C [34] 20.4%
683 nM: IC50 (second compound 0.1 µM)
605 nM: IC50 (second compound 0.0316 µM)
520 nM: IC50 (second compound 0.316 µM)

CCCS(=O)(=O)Nc1ccc(F)c(C(=O)c2c[nH]c3ncc(-c4ccc(Cl)cc4)cc23)c1F + Cc1[nH]c2ccc(F)cc2c1-c1nc2c3cccnc3c3ncccc3c2[nH]1
inactive: viability, T/C [1] 77.2% | viability, T/C [2] 87.3% | viability, T/C [3] 109% | viability, T/C [4] 115% | viability, T/C [5] 78.5% | viability, T/C [6] 12.7% | viability, T/C [7] 60.5% | viability, T/C [8] 105% | viability, T/C [9] 116% | viability, T/C [10] 70.9% | viability, T/C [11] 62.2% | viability, T/C [12] 15.5% | viability, T/C [13] 66.5% | viability, T/C [14] 73.7% | viability, T/C [15] 76.7% | viability, T/C [16] 70% | viability, T/C [17] 59.9% | viability, T/C [18] 14% | viability, T/C [19] 41.2% | viability, T/C [20] 70% | viability, T/C [21] 40.5% | viability, T/C [22] 55.5% | viability, T/C [23] 50.8% | viability, T/C [24] 11.7% | viability, T/C [25] 30.2% | viability, T/C [26] 29.2% | viability, T/C [27] 24.5% | viability, T/C [28] 19.6% | viability, T/C [29] 28.4% | viability, T/C [30] 7.37% | viability, T/C [31] 27.2% | viability, T/C [32] 23% | viability, T/C [33] 24.6% | viability, T/C [34] 27.1% | viability, T/C [35] 26.1% | viability, T/C [36] 8.52%
< 31.6 nM: IC50 (second compound 3.16 µM) | IC50 (second compound 10 µM)
5200 nM: IC50 (second compound 0.0316 µM)
4060 nM: IC50 (second compound 0.316 µM)
4080 nM: IC50 (second compound 0.1 µM)
3250 nM: IC50 (second compound 1 µM)

O=C(NO)c1cnc(N2CCN(S(=O)(=O)c3ccc4ccccc4c3)CC2)nc1 + Cc1[nH]c2ccc(F)cc2c1-c1nc2c3cccnc3c3ncccc3c2[nH]1
active: viability, T/C [5] 0.25% | viability, T/C [6] 0.68% | viability, T/C [11] 0.15% | viability, T/C [12] 0.1% | viability, T/C [17] 0.27% | viability, T/C [18] 0.1% | viability, T/C [23] 0.35% | viability, T/C [24] 0.13% | viability, T/C [29] 0.41% | viability, T/C [30] 0.14% | viability, T/C [35] 0.86% | viability, T/C [36] 0.16%
541 nM: IC50 (second compound 1 µM)
inactive: viability, T/C [1] 72.4% | viability, T/C [2] 66.6% | viability, T/C [3] 52.3% | viability, T/C [4] 37.3% | viability, T/C [7] 72.8% | viability, T/C [8] 79.5% | viability, T/C [9] 62% | viability, T/C [10] 30.2% | viability, T/C [13] 60.8% | viability, T/C [14] 75.7% | viability, T/C [15] 65.5% | viability, T/C [16] 36.8% | viability, T/C [19] 71% | viability, T/C [20] 65.6% | viability, T/C [21] 57.6% | viability, T/C [22] 38.4% | viability, T/C [25] 42.5% | viability, T/C [26] 25.7% | viability, T/C [27] 27% | viability, T/C [28] 30.6% | viability, T/C [31] 29.7% | viability, T/C [32] 28.4% | viability, T/C [33] 20.8% | viability, T/C [34] 12.5%
< 31.6 nM: IC50 (second compound 3.16 µM) | IC50 (second compound 10 µM)
430 nM: IC50 (second compound 0.0316 µM)
600 nM: IC50 (second compound 0.316 µM)
503 nM: IC50 (second compound 0.1 µM)

CC(C)n1c(=O)n(C)c2cnc3cc(F)c(-c4ccc(OCCCN5CCCCC5)nc4)cc3c21 + Cc1cnc(CNC(=O)c2c(=O)c3ccc(N4CCCN(C)CC4)nc3n3c2sc2ccccc23)cn1
< 31.6 nM: IC50 (second compound 1 µM) | IC50 (second compound 3.16 µM) | IC50 (second compound 10 µM)
3960 nM: IC50 (second compound 0.0316 µM)
inactive: viability, T/C [1] 81.5% | viability, T/C [2] 68% | viability, T/C [3] 74.5% | viability, T/C [4] 56.7% | viability, T/C [5] 61.4% | viability, T/C [6] 32.5% | viability, T/C [7] 61% | viability, T/C [8] 61.6% | viability, T/C [9] 63.3% | viability, T/C [10] 57.8% | viability, T/C [11] 60.9% | viability, T/C [12] 28.6% | viability, T/C [13] 50.7% | viability, T/C [14] 64.7% | viability, T/C [15] 52.8% | viability, T/C [16] 49.3% | viability, T/C [17] 42.9% | viability, T/C [18] 30.9% | viability, T/C [19] 42.4% | viability, T/C [20] 45.1% | viability, T/C [21] 45.7% | viability, T/C [22] 48.1% | viability, T/C [23] 26.1% | viability, T/C [25] 14.6% | viability, T/C [26] 8.86%
1080 nM: IC50 (second compound 0.316 µM)
4640 nM: IC50 (second compound 0.1 µM)
active: viability, T/C [24] 5.54% | viability, T/C [27] 7.48% | viability, T/C [28] 16.6% | viability, T/C [29] 5.15% | viability, T/C [30] 0.23% | viability, T/C [31] 0.18% | viability, T/C [32] 0.2% | viability, T/C [33] 0.2% | viability, T/C [34] 0.18% | viability, T/C [35] 0.29% | viability, T/C [36] 0.16%
